Patent US9211310B2, “Use of a Chinese medicine composition in preparing medicaments for treating secondary prevention of myocardial infarction” (TASLY PHARMACEUTICAL GROUP CO., LTD, priority 2010, dated 2015)

Test system: patients after acute myocardial infarction
Assay: TCM symptom score, total and single (chest pain, chest tightness, short breath, fatigue, palpitation, spontaneous perspiration, pale complexion), same clinical trial
Assay type: in vivo, human
Design: total score of TCM symptom, Mean / total score of TCM symptom, Min / total score of TCM symptom, Max / total score of TCM symptom, Md / change of total score of TCM symptom, Mean / change of total score of TCM symptom, Max / change of total score of TCM symptom, Md: scale not given here
Conditions: PP
From the text: 3508 patients who were in accordance with the diagnostic standards of AMI for 28 days to 2 years and differentiated as Qi deficiency and blood stagnation syndrome by TCM were studied. 0.5 g Chinese medicine composition prepared by the method of EXAMPLE 1 (Coded as QSYQ) was administrated half an hour after meal, 3 times per day.
They included the overall survival time, angina pectoris score, TCM symptom score and life quality score, where angina pectoris score, TCM symptom score and life quality score were evaluated at randomization, in 1st, 3rd, 6th, 9th, 12th month after treatment and 18th month after follow-up.
The analysis method referred to the angina pectoris score.

[1] = 3 months after treatment-baseline
[2] = 6 months after treatment-baseline

CC(=O)Oc1ccccc1C(=O)O [Control group, aspirine]
change of short breath 2, number of patients [1]: 309
change of short breath 4, % of patients [1]: (2.36%)
change of short breath 4, number of patients [1]: 34
change of short breath 6, % of patients [1]: (0.55%)
change of short breath 6, number of patients [1]: 8
change of short breath −2, % of patients [1]: (5.27%)
change of short breath −2, number of patients [1]: 76
change of short breath −4, % of patients [1]: (0.14%)
change of short breath −4, number of patients [1]: 2
change of short breath −6, % of patients [1]: (0.00%)
change of short breath −6, number of patients [1]: 0
change of spontaneous perspiration 0, number of patients [1]: 898
change of spontaneous perspiration 0, percent of patients [1]: (62.23%)
change of spontaneous perspiration 1, number of patients [1]: 342
change of spontaneous perspiration 1, percent of patients [1]: (23.70%)
change of spontaneous perspiration 2, number of patients [1]: 71
change of spontaneous perspiration 2, percent of patients [1]: (4.92%)
change of spontaneous perspiration 3, number of patients [1]: 16
change of spontaneous perspiration 3, percent of patients [1]: (1.11%)
change of spontaneous perspiration −1, number of patients [1]: 101
change of spontaneous perspiration −1, percent of patients [1]: (7.00%)
change of spontaneous perspiration −2, number of patients [1]: 13
change of spontaneous perspiration −2, percent of patients [1]: (0.90%)
change of spontaneous perspiration −3, number of patients [1]: 2
change of spontaneous perspiration −3, percent of patients [1]: (0.14%)
distribution of total score of TCM symptom: Medium, number of patients (6 months after treatment): 377
distribution of total score of TCM symptom: Medium, percentage of patients (6 months after treatment): (26.40%)
distribution of total score of TCM symptom: Mild, number of patients (6 months after treatment): 1044
distribution of total score of TCM symptom: Mild, percentage of patients (6 months after treatment): (73.11%)
distribution of total score of TCM symptom: Severe, number of patients (6 months after treatment): 7
distribution of total score of TCM symptom: Severe, percentage of patients (6 months after treatment): (0.49%)
fatigue score 0, % of patients (6 months after treatment): (31.00%)
fatigue score 0, number of patients (6 months after treatment): 443
fatigue score 2, % of patients (6 months after treatment): (61.65%)
fatigue score 2, number of patients (6 months after treatment): 881
fatigue score 4, % of patients (6 months after treatment): (6.79%)
fatigue score 4, number of patients (6 months after treatment): 97
fatigue score 6, % of patients (6 months after treatment): (0.56%)
fatigue score 6, number of patients (6 months after treatment): 8
pale complexion score 0, number of patients (6 months after treatment): 750
pale complexion score 0, percent of patients (6 months after treatment): (52.48%)
pale complexion score 1, number of patients (6 months after treatment): 540
pale complexion score 1, percent of patients (6 months after treatment): (37.79%)
pale complexion score 2, number of patients (6 months after treatment): 133
pale complexion score 2, percent of patients (6 months after treatment): (9.31%)
pale complexion score 3, number of patients (6 months after treatment): 6
pale complexion score 3, percent of patients (6 months after treatment): (0.42%)
palpitation score 0, number of patients (6 months after treatment): 456
palpitation score 0, percent of patients (6 months after treatment): (31.91%)
palpitation score 2, number of patients (6 months after treatment): 764
palpitation score 2, percent of patients (6 months after treatment): (53.46%)
palpitation score 4, number of patients (6 months after treatment): 192
palpitation score 4, percent of patients (6 months after treatment): (13.44%)
palpitation score 6, number of patients (6 months after treatment): 17
palpitation score 6, percent of patients (6 months after treatment): (1.19%)
short breath score 0, % of patients (6 months after treatment): (25.21%)
short breath score 0, number of patients (6 months after treatment): 360
short breath score 2, % of patients (6 months after treatment): (0.07%)
short breath score 2, number of patients (6 months after treatment): 1
short breath score 3, % of patients (6 months after treatment): (58.68%)
short breath score 3, number of patients (6 months after treatment): 838
short breath score 6, % of patients (6 months after treatment): (15.55%)
short breath score 6, number of patients (6 months after treatment): 222
short breath score 9, % of patients (6 months after treatment): (0.49%)
short breath score 9, number of patients (6 months after treatment): 7
spontaneous perspiration score 0, number of patients (6 months after treatment): 628
spontaneous perspiration score 0, percent of patients (6 months after treatment): (43.98%)
spontaneous perspiration score 1, number of patients (6 months after treatment): 676
spontaneous perspiration score 1, percent of patients (6 months after treatment): (47.34%)
spontaneous perspiration score 2, number of patients (6 months after treatment): 117
spontaneous perspiration score 2, percent of patients (6 months after treatment): (8.19%)
spontaneous perspiration score 3, number of patients (6 months after treatment): 7
spontaneous perspiration score 3, percent of patients (6 months after treatment): (0.49%)
total score of TCM symptom, Max (6 months after treatment): 34.00
total score of TCM symptom, Md (6 months after treatment): 9.00
total score of TCM symptom, Mean (6 months after treatment): 9.79
total score of TCM symptom, Min (6 months after treatment): 0.00
change of fatigue 0, % of patients [2]: (55.47%)
change of fatigue 0, number of patients [2]: 791
change of fatigue 2, % of patients [2]: (30.01%)
change of fatigue 2, number of patients [2]: 428
change of fatigue 4, % of patients [2]: (6.80%)
change of fatigue 4, number of patients [2]: 97
change of fatigue 6, % of patients [2]: (1.12%)
change of fatigue 6, number of patients [2]: 16
change of fatigue −2, % of patients [2]: (6.03%)
change of fatigue −2, number of patients [2]: 86
change of fatigue −4, % of patients [2]: (0.56%)
change of fatigue −4, number of patients [2]: 8
change of fatigue −6, % of patients [2]: (0.00%)
change of fatigue −6, number of patients [2]: 0
change of pale complexion 0, number of patients [2]: 1104
change of pale complexion 0, percent of patients [2]: (77.47%)
change of pale complexion 1, number of patients [2]: 272
change of pale complexion 1, percent of patients [2]: (19.09%)
change of pale complexion −1, number of patients [2]: 49
change of pale complexion −1, percent of patients [2]: (3.44%)
change of palpitation 0, number of patients [2]: 842
change of palpitation 0, percent of patients [2]: (59.09%)
change of palpitation 1, number of patients [2]: 431
change of palpitation 1, percent of patients [2]: (30.25%)
change of palpitation 2, number of patients [2]: 53
change of palpitation 2, percent of patients [2]: (3.72%)
change of palpitation 3, number of patients [2]: 7
change of palpitation 3, percent of patients [2]: (0.49%)
change of palpitation −1, number of patients [2]: 88
change of palpitation −1, percent of patients [2]: (6.18%)
change of palpitation −2, number of patients [2]: 4
change of palpitation −2, percent of patients [2]: (0.28%)
change of short breath 0, % of patients [2]: (63.53%)
change of short breath 0, number of patients [2]: 906
change of short breath 2, % of patients [2]: (27.14%)
change of short breath 2, number of patients [2]: 387
change of short breath 4, % of patients [2]: (3.16%)
change of short breath 4, number of patients [2]: 45
change of short breath 6, % of patients [2]: (0.56%)
change of short breath 6, number of patients [2]: 8
change of short breath −2, % of patients [2]: (5.33%)
change of short breath −2, number of patients [2]: 76
change of short breath −4, % of patients [2]: (0.14%)
change of short breath −4, number of patients [2]: 2
change of short breath −6, % of patients [2]: (0.14%)
change of short breath −6, number of patients [2]: 2
